The source of these data is patent US9796711B2, “Substituted pyrazolo[3,4-b]pyridin-6-carboxylic acids and method of use” (AbbVie S.àr.l., priority 2015, dated 2017).

Assay [1] has as its target T1, ΔF508-CFTR (Homo sapiens, UniProt P13569, DEL508-508).
T1 construct: host or cells: CFBE41o-, doxycycline-inducible
The assay can be described thus: CFTR cell surface levels using HRP-tagged ΔF508-CFTR expressing CFBE cells, in the presence of a co-corrector. Format: cell-based. In outline:
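Cells were seeded with 0.5 μg/mL doxycycline and held 68 h at 37 °C. Test compounds plus 3 μM co-corrector (final 0.1% DMSO) were then added for 20 h at 33 °C. Washed cells received HRP substrate, and luminescence was normalized between DMSO and 3 μM co-corrector controls.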

The target in assay [2] is T1, ΔF508-CFTR. The assay can be described thus: CFTR cell surface levels using HRP-tagged ΔF508-CFTR expressing CFBE cells, intrinsic corrector capacity. Format: cell-based. The procedure, abridged:
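Here the cells express ΔF508-CFTR with horseradish peroxidase inserted in extracellular loop 4, so only rescued channel at the surface gives luminescent signal. Compounds act on their own, 20 h at the reduced temperature of 33 °C; values are percent activity relative to DMSO and a 3 μM corrector.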

The mark [3] stands for this setting: HRP-tagged ΔF508-CFTR expressing CFBE cells, in the presence of 3 μM co-corrector.
Setting [4] is: HRP-tagged ΔF508-CFTR expressing CFBE cells, intrinsic corrector capacity (no co-corrector), 33° C., 20 hours.
The mark [5] stands for this setting: HRP-tagged ΔF508-CFTR expressing CFBE cells, in the presence of 3 μM co-corrector, read-out: EC50.
Setting [6] is: HRP-tagged ΔF508-CFTR expressing CFBE cells, intrinsic corrector capacity (no co-corrector), 33° C., 20 hours, read-out: EC50.
The mark [7] stands for this setting: HRP-tagged ΔF508-CFTR CFBE41o- cells, compounds alone (intrinsic corrector capacity), 20 hours at 33° C., positive control 3 μM corrector.
[8] abbreviates: HRP-tagged ΔF508-CFTR CFBE41o- cells, compounds alone (intrinsic corrector capacity), 20 hours at 33° C., read-out: EC50.

T1 sequence (P13569 with tags, fused parts or gaps DEL508-508): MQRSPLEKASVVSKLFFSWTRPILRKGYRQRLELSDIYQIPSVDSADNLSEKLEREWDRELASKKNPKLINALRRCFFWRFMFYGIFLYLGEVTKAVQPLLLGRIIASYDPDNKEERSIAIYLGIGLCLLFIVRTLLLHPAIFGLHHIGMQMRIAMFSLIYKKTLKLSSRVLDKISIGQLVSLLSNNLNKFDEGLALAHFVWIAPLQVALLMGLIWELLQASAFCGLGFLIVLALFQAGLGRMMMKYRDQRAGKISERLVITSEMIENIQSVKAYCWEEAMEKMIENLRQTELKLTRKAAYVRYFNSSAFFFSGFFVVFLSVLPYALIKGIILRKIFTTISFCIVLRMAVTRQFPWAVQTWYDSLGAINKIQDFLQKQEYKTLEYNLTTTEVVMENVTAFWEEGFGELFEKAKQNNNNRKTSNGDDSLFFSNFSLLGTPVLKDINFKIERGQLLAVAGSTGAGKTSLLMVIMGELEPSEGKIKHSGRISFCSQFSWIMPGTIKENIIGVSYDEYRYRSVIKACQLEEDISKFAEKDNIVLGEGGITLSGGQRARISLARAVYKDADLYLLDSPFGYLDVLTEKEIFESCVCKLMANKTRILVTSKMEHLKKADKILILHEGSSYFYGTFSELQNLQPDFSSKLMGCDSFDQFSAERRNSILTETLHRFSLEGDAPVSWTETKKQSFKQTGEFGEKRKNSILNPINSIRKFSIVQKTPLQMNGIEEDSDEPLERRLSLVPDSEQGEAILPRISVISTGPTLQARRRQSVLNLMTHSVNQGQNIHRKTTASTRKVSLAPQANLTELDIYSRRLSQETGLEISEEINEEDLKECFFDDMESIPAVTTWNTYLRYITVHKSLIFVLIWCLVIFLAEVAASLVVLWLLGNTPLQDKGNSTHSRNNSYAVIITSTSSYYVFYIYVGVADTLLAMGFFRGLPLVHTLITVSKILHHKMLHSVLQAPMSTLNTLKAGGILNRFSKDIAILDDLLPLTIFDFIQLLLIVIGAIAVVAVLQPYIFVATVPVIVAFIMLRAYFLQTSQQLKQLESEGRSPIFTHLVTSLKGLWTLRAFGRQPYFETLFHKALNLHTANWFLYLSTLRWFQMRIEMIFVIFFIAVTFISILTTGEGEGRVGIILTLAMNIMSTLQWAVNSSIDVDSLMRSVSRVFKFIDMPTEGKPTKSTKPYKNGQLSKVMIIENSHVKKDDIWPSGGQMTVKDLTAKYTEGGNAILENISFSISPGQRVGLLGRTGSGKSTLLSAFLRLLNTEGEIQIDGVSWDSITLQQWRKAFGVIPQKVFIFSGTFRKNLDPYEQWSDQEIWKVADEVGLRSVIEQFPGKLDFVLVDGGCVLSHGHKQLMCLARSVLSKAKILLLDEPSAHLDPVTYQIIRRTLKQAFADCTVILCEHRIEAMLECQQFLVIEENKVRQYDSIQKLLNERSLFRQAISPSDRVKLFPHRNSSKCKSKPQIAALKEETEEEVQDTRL

As usually defined, the EC50 is the concentration at which the effect is half-maximal. In the case of `CC(C)(C)OC(=O)N1CC[C@@H]2CN(c3cc(C(=O)O)nc4c3c(C3CCC3)nn4-c3ccccc3)CC[C@@H]21` (racemic) [compound 549, rac-4-[(3aR,7aS)-1-(tert-butoxycarbonyl)octahydro-5H-pyrrolo[3,2-c]pyridin-5-yl]-3-cyclobutyl-1-phenyl-1H-pyrazolo[3,4-b]pyridine-6-carboxylic acid], the EC50 on ΔF508-CFTR [1] was found to be 0.0617 µM; at ΔF508-CFTR [2], 0.211 µM. Besides, the “% Activation” value at ΔF508-CFTR [1] (setting [3]) turned out to be 467.2%; on ΔF508-CFTR [2] (setting [4]), 302.2%.
Regarding `O=C(O)c1cc(N2CCC(N3CCOCC3)CC2)c2c(C3CCC3)nn(-c3ccc(C(F)(F)F)cc3)c2n1` [compound 823, 3-cyclobutyl-4-[4-(morpholin-4-yl)piperidin-1-yl]-1-[4-(trifluoromethyl)phenyl]-1H-pyrazolo[3,4-b]pyridine-6-carboxylic acid], the entries for the “% Activation” value at ΔF508-CFTR [1] (setting [3]) and at ΔF508-CFTR [2] (setting [4]) were 375.2% and 188.7%, respectively. Also, the values for the EC50 on ΔF508-CFTR [1] (setting [5]) and at ΔF508-CFTR [2] (setting [6]) were 0.147 µM and 0.258 µM, respectively.
On to `COCCC1(CCOc2cc(C(=O)O)nc3c2c(C2CCC2)nn3-c2ccccc2)CC1` [compound 484, 3-cyclobutyl-4-{2-[1-(2-methoxyethyl)cyclopropyl]ethoxyl}-1-phenyl-1H-pyrazolo[3,4-b]pyridine-6-carboxylic acid], for which the results for the “% Activation” value on ΔF508-CFTR [1] (setting [3]) and on ΔF508-CFTR [2] (setting [4]) were 226.6% and 113.5%, respectively. The results for the EC50 on ΔF508-CFTR [1] (setting [5]) and on ΔF508-CFTR [2] (setting [6]) were 0.369 µM and 1.11 µM, respectively.
Taken in the same sequence, the figures for `COCC(COC)Oc1cc(C(=O)O)nc2c1c(C1CCC1)nn2-c1ccccc1` [compound 491, 3-cyclobutyl-4-[(1,3-dimethoxypropan-2-yl)oxy]-1-phenyl-1H-pyrazolo[3,4-b]pyridine-6-carboxylic acid] were 256.5%, 82.97%, 0.966 µM and 2.28 µM.
For `Cc1nn(-c2ccccc2)c2nc(C(=O)O)cc(-c3ccc(N4CC(F)(F)C4)cc3)c12` [compound 97, 4-[4-(3,3-difluoroazetidin-1-yl)phenyl]-3-methyl-1-phenyl-1H-pyrazolo[3,4-b]pyridine-6-carboxylic acid], the results for the “% Activation” value on ΔF508-CFTR [1] (setting [3]) and at ΔF508-CFTR [2] (setting [7]) were 268% and 96.51%, respectively. In addition, the 50% effective concentration (EC50) on ΔF508-CFTR [1] (setting [5]) stood at 1.16 µM; on ΔF508-CFTR [2] (setting [8]), 1.53 µM.
Turning to `CCOCCN1CCN(C2CCN(c3cc(C(=O)O)nc4c3c(C(C)C)nn4-c3ccc(F)cc3)CC2)CC1` [compound 745, 4-{4-[4-(2-ethoxyethyl)piperazin-1-yl]piperidin-1-yl}-1-(4-fluorophenyl)-3-(propan-2-yl)-1H-pyrazolo[3,4-b]pyridine-6-carboxylic acid], the “% Activation” value is reported as 457.5% at ΔF508-CFTR [1] (setting [3]) and 239.3% on ΔF508-CFTR [2] (setting [4]). The EC50 amounted to 0.191 µM on ΔF508-CFTR [1] (setting [5]) and 0.573 µM on ΔF508-CFTR [2] (setting [6]).
In the case of `Cc1nn(-c2ccccc2)c2nc(C(=O)O)cc(-c3ccc(N4CCC4)cc3)c12` [compound 135, 4-[4-(azetidin-1-yl)phenyl]-3-methyl-1-phenyl-1H-pyrazolo[3,4-b]pyridine-6-carboxylic acid], the “% Activation” value worked out at 355.55% on ΔF508-CFTR [1] (setting [3]) and 165.1% on ΔF508-CFTR [2] (setting [7]). Besides, the figures for the EC50 at ΔF508-CFTR [1] (setting [5]) and on ΔF508-CFTR [2] (setting [8]) were 1.46 µM and 2.2 µM, respectively.
Consider `CC(C)c1nn(-c2ccc(F)cc2)c2nc(C(=O)O)cc(N3CCN(CC4CCCO4)CC3)c12` (centres unmarked) [compound 792, 1-(4-fluorophenyl)-4-{4-[(oxolan-2-yl)methyl]piperazin-1-yl}-3-(propan-2-yl)-1H-pyrazolo[3,4-b]pyridine-6-carboxylic acid], for which the “% Activation” value was determined as 321% on ΔF508-CFTR [1] (setting [3]) and 170.1% at ΔF508-CFTR [2] (setting [4]). In addition, the results for the EC50 on ΔF508-CFTR [1] (setting [5]) and at ΔF508-CFTR [2] (setting [6]) were 0.71 µM and 1.43 µM, respectively.
In the case of `O=C(O)c1cc(N2CCC(CN3CC(OCC(F)F)C3)CC2)c2c(C3CCC3)nn(-c3ccccc3)c2n1` [compound 835, 3-cyclobutyl-4-(4-{[3-(2,2-difluoroethoxy)azetidin-1-yl]methyl}piperidin-1-yl)-1-phenyl-1H-pyrazolo[3,4-b]pyridine-6-carboxylic acid], the “% Activation” value on ΔF508-CFTR [1] (setting [3]) is 466.9%; on ΔF508-CFTR [2] (setting [4]) it was 291.5%. The EC50 stood at 0.0676 µM on ΔF508-CFTR [1] (setting [5]) and 0.163 µM at ΔF508-CFTR [2] (setting [6]).
For the compound `O=C(O)c1cc(OCCN2CCS(=O)(=O)CC2)c2c(C3CCC3)nn(-c3ccccc3)c2n1` [compound 436, 3-cyclobutyl-4-[2-(1,1-dioxo-lλ^6,4-thiazinan-4-yl)ethoxy]-1-phenyl-1H-pyrazolo[3,4-b]pyridine-6-carboxylic acid], the “% Activation” value was determined as 157.15% at ΔF508-CFTR [1] (setting [3]) and 24.16% at ΔF508-CFTR [2] (setting [4]). The results for the concentration giving a half-maximal response (EC50) on ΔF508-CFTR [1] (setting [5]) and at ΔF508-CFTR [2] (setting [6]) were 2.51 µM and 4.17 µM, respectively.
On to `CCC1(COc2cc(C(=O)O)nc3c2c(C2CCC2)nn3-c2ccccc2)COC1` [compound 581, 3-cyclobutyl-4-[(3-ethyloxetan-3-yl)methoxy]-1-phenyl-1H-pyrazolo[3,4-b]pyridine-6-carboxylic acid], for which the “% Activation” value on ΔF508-CFTR [1] (setting [3]) amounted to 377.8%; at ΔF508-CFTR [2] (setting [4]) it was 146%. In addition, the results for the half-maximal effective concentration (EC50) at ΔF508-CFTR [1] (setting [5]) and on ΔF508-CFTR [2] (setting [6]) were 0.203 µM and 0.25 µM, respectively.
As for `CC(c1ccc(-c2cc(C(=O)O)nc3c2c(C2CCC2)nn3C2CCCCC2)cc1)N1CCOCC1` (centres unmarked) [compound 866, 3-cyclobutyl-1-cyclohexyl-4-{4-[1-(morpholin-4-yl)ethyl]phenyl}-1H-pyrazolo[3,4-b]pyridine-6-carboxylic acid], the “% Activation” value at ΔF508-CFTR [1] (setting [3]) is given as 298.3%; at ΔF508-CFTR [2] (setting [4]), 99.71%. Further, the 50% effective concentration (EC50) at ΔF508-CFTR [1] (setting [5]) came to 0.151 µM; on ΔF508-CFTR [2] (setting [6]) it was 0.277 µM.
Taken in the same sequence, the figures for `COc1cc(-n2nc(C3CCC3)c3c(N4CCC(N5CCOCC5)CC4)cc(C(=O)O)nc32)ccc1F` [compound 908, 3-cyclobutyl-1-(4-fluoro-3-methoxyphenyl)-4-[4-(morpholin-4-yl)piperidin-1-yl]-1H-pyrazolo[3,4-b]pyridine-6-carboxylic acid] were 486.75%, 220.2%, 0.171 µM and 0.256 µM.
Take `Cc1nn(-c2ccccc2)c2nc(C(=O)O)cc(O[C@H]3C[C@@H](N4CCS(=O)(=O)CC4)C3)c12` [compound 333, 4-{[cis-3-(1,1-dioxo-1λ^6,4-thiazinan-4-yl)cyclobutyl]oxy}-3-methyl-1-phenyl-1H-pyrazolo[3,4-b]pyridine-6-carboxylic acid]: the entries for the “% Activation” value at ΔF508-CFTR [1] (setting [3]) and on ΔF508-CFTR [2] (setting [7]) were 150.85% and 27.26%, respectively. The results for the EC50 at ΔF508-CFTR [1] (setting [5]) and on ΔF508-CFTR [2] (setting [8]) were 4.11 µM and 4.17 µM, respectively.
Consider `O=C(O)c1cc(N2CCOC(C(F)(F)F)C2)c2c(C3CCC3)nn(-c3ccccc3)c2n1` (centres unmarked) [compound 596, 3-cyclobutyl-1-phenyl-4-[2-(trifluoromethyl)morpholin-4-yl]-1H-pyrazolo[3,4-b]pyridine-6-carboxylic acid], for which the figures for the “% Activation” value on ΔF508-CFTR [1] (setting [3]) and on ΔF508-CFTR [2] (setting [4]) were 299.4% and 99.54%, respectively. Besides, the figures for the EC50 at ΔF508-CFTR [1] (setting [5]) and on ΔF508-CFTR [2] (setting [6]) were 0.522 µM and 0.735 µM, respectively.
Take `CC(=O)NC1CCN(c2ccc(-c3cc(C(=O)O)nc4c3c(C)nn4-c3ccccc3)cc2)C1` (centres unmarked) [compound 156, 4-[4-(3-acetamidopyrrolidin-1-yl)phenyl]-3-methyl-1-phenyl-1H-pyrazolo[3,4-b]pyridine-6-carboxylic acid]: the results for the “% Activation” value at ΔF508-CFTR [1] (setting [3]) and on ΔF508-CFTR [2] (setting [7]) were 411.55% and 175.5%, respectively. The EC50 was determined as 3.16 µM at ΔF508-CFTR [1] (setting [5]) and 3.34 µM at ΔF508-CFTR [2] (setting [8]).
On to `CC(C)c1nn(C2CCCCC2)c2nc(C(=O)O)cc(-c3cnc(N4CCC(C#N)CC4)nc3)c12` [compound 235, 4-[2-(4-cyanopiperidin-1-yl)pyrimidin-5-yl]-1-cyclohexyl-3-(propan-2-yl)-1H-pyrazolo[3,4-b]pyridine-6-carboxylic acid], for which the “% Activation” value at ΔF508-CFTR [1] (setting [3]) worked out at 403.1%; at ΔF508-CFTR [2] (setting [7]) it was 206.8%. Further, the EC50 at ΔF508-CFTR [1] (setting [5]) was found to be 0.743 µM; on ΔF508-CFTR [2] (setting [8]) it was 0.832 µM.
As for `CN(C)CCC1CCN(c2cc(C(=O)O)nc3c2c(C2CCC2)nn3-c2ccccc2)CC1` [compound 447, 3-cyclobutyl-4-{4-[2-(dimethylamino)ethyl]piperidin-1-yl}-1-phenyl-1H-pyrazolo[3,4-b]pyridine-6-carboxylic acid], the “% Activation” value at ΔF508-CFTR [1] (setting [3]) is 415.6%; on ΔF508-CFTR [2] (setting [4]), 243.3%. Moreover, the figures for the EC50 on ΔF508-CFTR [1] (setting [5]) and at ΔF508-CFTR [2] (setting [6]) were 0.724 µM and 1.12 µM, respectively.
Taken in the same sequence, the figures for `CS(=O)(=O)N1CCN(c2cc(C(=O)O)nc3c2c(C2CCC2)nn3-c2ccccc2)CC1` [compound 523, 3-cyclobutyl-4-[4-(methanesulfonyl)piperazin-1-yl]-1-phenyl-1H-pyrazolo[3,4-b]pyridine-6-carboxylic acid] were 320.1%, 136.2%, 0.63 µM and 2.85 µM.
As for `CS(=O)(=O)NC1CCN(c2cc(C(=O)O)nc3c2c(C2CCC2)nn3-c2ccccc2)CC1` [compound 519, 3-cyclobutyl-4-{4-[(methanesulfonyl)amino]piperidin-1-yl}-1-phenyl-1H-pyrazolo[3,4-b]pyridine-6-carboxylic acid], the “% Activation” value is recorded as 340.6% on ΔF508-CFTR [1] (setting [3]) and 149.3% on ΔF508-CFTR [2] (setting [4]). In addition, the results for the EC50 on ΔF508-CFTR [1] (setting [5]) and on ΔF508-CFTR [2] (setting [6]) were 3.33 µM and 3.34 µM, respectively.
